The test system of one experiment is MV4-11. Put plainly: Proliferation assay (MTT, leukaemia cancer cell line). The note with it: Homo sapiens; 1 µM compound, MV4-11 cells. The experiment is classed as cell-based. The text has this: (§1) Compounds from Example 1 were subjected to standard resazurin and MTT assays on solid tumour and leukaemia cancer cell lines, respectively, as previously reported (Wang S et al., J Med Chem 47:1662-1675, 2004 and Diab S et al., CheMedChem 9:962-972, 2014).

The next experiment concerns MDA-MB-231. Kind of experiment: Proliferation assay (resazurin, solid tumour cell line). The class given is cell-based. The note with it: Homo sapiens; MDA-MB-231 cells.
From the text: as §1

The target of a further experiment is T1, AXL (Homo sapiens, UniProt P30530).
T1 construct: purchased Eurofins Discovery (Kinase Profiler service)
T1 sequence (P30530 26-894): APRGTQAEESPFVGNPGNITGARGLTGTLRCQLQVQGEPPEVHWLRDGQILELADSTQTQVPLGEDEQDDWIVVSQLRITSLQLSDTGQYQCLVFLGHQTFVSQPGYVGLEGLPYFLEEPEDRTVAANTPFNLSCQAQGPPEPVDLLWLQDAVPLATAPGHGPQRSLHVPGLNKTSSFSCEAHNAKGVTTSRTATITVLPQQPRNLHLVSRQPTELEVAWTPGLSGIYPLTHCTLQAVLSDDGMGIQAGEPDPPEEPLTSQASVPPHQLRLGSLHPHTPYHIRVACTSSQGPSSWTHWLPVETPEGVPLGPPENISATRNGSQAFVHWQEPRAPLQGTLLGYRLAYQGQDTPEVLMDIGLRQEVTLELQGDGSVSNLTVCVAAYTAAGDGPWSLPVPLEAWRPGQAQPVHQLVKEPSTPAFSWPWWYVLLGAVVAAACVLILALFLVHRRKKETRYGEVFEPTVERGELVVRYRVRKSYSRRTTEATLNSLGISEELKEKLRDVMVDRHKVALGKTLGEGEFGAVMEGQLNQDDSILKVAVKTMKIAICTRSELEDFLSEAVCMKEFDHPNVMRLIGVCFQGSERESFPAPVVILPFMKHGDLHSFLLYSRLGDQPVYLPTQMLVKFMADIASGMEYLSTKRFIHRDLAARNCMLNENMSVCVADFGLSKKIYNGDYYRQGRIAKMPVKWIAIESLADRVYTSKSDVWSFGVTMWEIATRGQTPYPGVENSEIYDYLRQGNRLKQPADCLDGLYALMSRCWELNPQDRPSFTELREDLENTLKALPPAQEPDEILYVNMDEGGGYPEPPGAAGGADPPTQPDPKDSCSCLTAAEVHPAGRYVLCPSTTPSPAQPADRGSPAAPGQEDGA
Put plainly: Filter-binding radiometric kinase activity assay (KinaseProfiler, Eurofins). The experiment is classed as biochemical. The note with it: 1 µM compound; read-out: % Residual enzymatic activity at 1 µM AXL.

The target in the next experiment is T2, MET (Homo sapiens, UniProt P08581).
T2 construct: purchased Eurofins Discovery (Kinase Profiler service)
The description is as above. The note with it: 1 µM compound; read-out: % Residual enzymatic activity at 1 µM MET. The experiment is classed as biochemical.

In another experiment the target is T3, Mer (Homo sapiens, UniProt Q12866).
T3 construct: purchased Eurofins Discovery (Kinase Profiler service)
T3 sequence (Q12866 21-999): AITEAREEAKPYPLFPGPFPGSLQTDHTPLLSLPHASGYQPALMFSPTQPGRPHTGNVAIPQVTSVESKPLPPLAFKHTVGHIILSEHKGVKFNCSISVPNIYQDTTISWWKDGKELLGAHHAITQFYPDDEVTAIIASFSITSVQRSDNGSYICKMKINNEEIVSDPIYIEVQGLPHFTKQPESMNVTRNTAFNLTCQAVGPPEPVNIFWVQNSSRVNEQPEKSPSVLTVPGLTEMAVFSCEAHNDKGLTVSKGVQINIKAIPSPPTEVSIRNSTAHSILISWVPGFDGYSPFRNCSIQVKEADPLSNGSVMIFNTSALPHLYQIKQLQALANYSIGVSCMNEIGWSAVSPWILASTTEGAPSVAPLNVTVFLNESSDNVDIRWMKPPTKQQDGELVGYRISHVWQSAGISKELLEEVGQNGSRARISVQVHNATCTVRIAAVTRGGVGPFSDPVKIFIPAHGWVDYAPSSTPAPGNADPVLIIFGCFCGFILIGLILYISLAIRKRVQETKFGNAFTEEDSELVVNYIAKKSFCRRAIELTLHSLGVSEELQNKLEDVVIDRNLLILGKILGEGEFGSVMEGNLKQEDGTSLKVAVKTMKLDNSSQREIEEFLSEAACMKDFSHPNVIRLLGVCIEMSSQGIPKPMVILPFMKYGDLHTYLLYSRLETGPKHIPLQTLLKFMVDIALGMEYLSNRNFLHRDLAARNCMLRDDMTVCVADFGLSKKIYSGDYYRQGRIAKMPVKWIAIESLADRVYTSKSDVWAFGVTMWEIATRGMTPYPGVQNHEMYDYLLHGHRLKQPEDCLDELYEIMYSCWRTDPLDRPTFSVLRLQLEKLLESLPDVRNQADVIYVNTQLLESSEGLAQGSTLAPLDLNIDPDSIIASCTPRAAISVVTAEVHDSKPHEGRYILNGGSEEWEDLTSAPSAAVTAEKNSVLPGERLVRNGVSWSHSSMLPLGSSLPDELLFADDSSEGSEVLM
Described as above. The class given is biochemical. The note with it: 1 µM compound; read-out: % Residual enzymatic activity at 1 µM Mer.

The values below come from patent US20230339889A1, “DERIVATIVES OF 2-OXO-N-(4-(PYRIMIDIN-4-YLOXY/THIO)PHENYL)-1,2-DIHYDROPYRIDINE-3-CARBOXAMIDE FOR USE AS PROTEIN KINASE INHIBITORS FOR THERAPY” (AUCENTRA THERAPEUTICS PTY LTD, priority 2020, published 2023).

T2 sequence (P08581 25-1390): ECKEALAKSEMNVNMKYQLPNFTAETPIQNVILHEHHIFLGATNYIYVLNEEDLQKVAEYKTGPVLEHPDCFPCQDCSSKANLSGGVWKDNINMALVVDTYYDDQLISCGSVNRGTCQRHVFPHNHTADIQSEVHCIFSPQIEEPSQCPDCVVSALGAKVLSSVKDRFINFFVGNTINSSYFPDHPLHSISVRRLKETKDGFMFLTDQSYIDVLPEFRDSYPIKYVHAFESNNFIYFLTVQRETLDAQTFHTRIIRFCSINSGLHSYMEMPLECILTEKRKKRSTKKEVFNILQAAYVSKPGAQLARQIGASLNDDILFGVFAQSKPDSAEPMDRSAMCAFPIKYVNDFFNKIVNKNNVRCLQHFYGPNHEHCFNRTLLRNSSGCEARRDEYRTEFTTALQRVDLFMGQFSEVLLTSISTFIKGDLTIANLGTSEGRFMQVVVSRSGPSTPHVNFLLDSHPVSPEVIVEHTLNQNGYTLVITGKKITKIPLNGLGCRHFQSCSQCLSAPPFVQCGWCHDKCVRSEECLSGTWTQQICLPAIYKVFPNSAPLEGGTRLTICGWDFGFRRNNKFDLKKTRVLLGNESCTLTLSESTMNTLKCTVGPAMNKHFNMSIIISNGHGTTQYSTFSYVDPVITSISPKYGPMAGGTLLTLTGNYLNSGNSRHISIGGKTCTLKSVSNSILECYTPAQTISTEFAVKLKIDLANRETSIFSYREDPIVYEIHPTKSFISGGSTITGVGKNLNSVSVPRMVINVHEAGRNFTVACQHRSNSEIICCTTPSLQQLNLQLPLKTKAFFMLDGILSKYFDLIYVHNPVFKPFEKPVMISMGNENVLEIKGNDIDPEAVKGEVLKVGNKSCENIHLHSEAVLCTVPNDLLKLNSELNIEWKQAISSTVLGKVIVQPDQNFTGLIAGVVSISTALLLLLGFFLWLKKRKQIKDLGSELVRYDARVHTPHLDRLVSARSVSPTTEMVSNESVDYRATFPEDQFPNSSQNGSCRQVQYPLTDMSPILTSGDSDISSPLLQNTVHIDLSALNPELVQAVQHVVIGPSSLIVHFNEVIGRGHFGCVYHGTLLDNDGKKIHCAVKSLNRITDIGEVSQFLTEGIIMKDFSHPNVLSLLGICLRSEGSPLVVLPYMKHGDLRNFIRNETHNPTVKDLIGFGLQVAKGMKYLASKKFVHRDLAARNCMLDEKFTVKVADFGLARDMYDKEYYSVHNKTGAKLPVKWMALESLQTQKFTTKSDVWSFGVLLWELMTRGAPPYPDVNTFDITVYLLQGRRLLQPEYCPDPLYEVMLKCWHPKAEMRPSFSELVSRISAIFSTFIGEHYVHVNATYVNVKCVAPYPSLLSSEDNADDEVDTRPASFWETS

On to `Nc1ncnc(Oc2ccc(NC(=O)c3cccn(-c4ccc(F)cc4)c3=O)cc2)c1Cl` [Cmpd 4, N-(4-((6-amino-5-chloropyrimidin-4-yl)oxy)phenyl)-1-(4-fluorophenyl)-2-oxo-1,2-dihydropyridine-3-carboxamide], for which the activity at 1 µM in the experiment with MV4-11 was 6%. Further, in the experiment on MDA-MB-231, it took 2.7 µM to inhibit growth by half (GI50). For the same molecule, the remaining activity at 1 µM is -1% at AXL, -5% at MET and 19% at Mer.

As for `Nc1ncnc(Oc2ccc(NC(=O)c3cccn(-c4ccc(F)cc4)c3=O)cc2)c1F` [Cmpd 6, N-(4-((6-amino-5-fluoropyrimidin-4-yl)oxy)phenyl)-1-(4-fluorophenyl)-2-oxo-1,2-dihydropyridine-3-carboxamide], the activity at 1 µM in the experiment on MV4-11 was determined as 3%. Besides, halving of growth in the experiment with MDA-MB-231 (GI50) required 8.9 µM. For the same molecule, the remaining activity at 1 µM at AXL was determined as 14%; on MET, 8%; at Mer, 14%.

In turn, `Nc1ncnc(Oc2ccc(NC(=O)c3cccn(-c4ccc(F)cc4)c3=O)cc2F)c1F` [Cmpd 1, N-(4-((6-amino-5-fluoropyrimidin-4-yl)oxy)-3-fluorophenyl)-1-(4-fluorophenyl)-2-oxo-1,2-dihydropyridine-3-carboxamide] gave an activity at 1 µM in the experiment on MV4-11 of 3%. The GI50 in the experiment with MDA-MB-231 is 1.2 µM. In addition, the remaining activity at 1 µM was found to be 13% on AXL, 0% on MET and 12% on Mer.

The molecule `Nc1ncnc(Oc2ccc(NC(=O)c3cccn(-c4ccc(F)cc4)c3=O)cc2F)c1Cl` [Cmpd 3, N-(4-((6-amino-5-chloropyrimidin-4-yl)oxy)-3-fluorophenyl)-1-(4-fluorophenyl)-2-oxo-1,2-dihydropyridine-3-carboxamide] had an activity at 1 µM with MV4-11 of 3%. For the same molecule, the GI50 in the experiment on MDA-MB-231 turned out to be 7.9 µM. The remaining activity at 1 µM on AXL is 4%; on MET it was -7%; on Mer, 6%.

The molecule `Nc1ncnc(Oc2ccc(NC(=O)c3cccn(-c4ccc(F)cc4)c3=O)c(F)c2)c1Cl` [Cmpd 5, N-(4-((6-amino-5-chloropyrimidin-4-yl)oxy)-2-fluorophenyl)-1-(4-fluorophenyl)-2-oxo-1,2-dihydropyridine-3-carboxamide] yielded an activity at 1 µM in the experiment on MV4-11 of 6%. This molecule also gave a GI50 in the experiment with MDA-MB-231 of 0.9 µM. Further, the remaining activity at 1 µM on AXL was -8%; at MET, -5%; on Mer, 0%.

In turn, `Nc1ncnc(Oc2ccc(NC(=O)c3cccn(-c4ccc(F)cc4)c3=O)c(F)c2)c1F` [Cmpd 7, N-(4-((6-amino-5-fluoropyrimidin-4-yl)oxy)-2-fluorophenyl)-1-(4-fluorophenyl)-2-oxo-1,2-dihydropyridine-3-carboxamide] gave an activity at 1 µM in the experiment with MV4-11 of 6%. Further, in the experiment with MDA-MB-231, the GI50 was 2.3 µM. For the same molecule, the remaining activity at 1 µM is 8% at AXL, -6% at MET and 4% at Mer.
